Experimental data as given in PMC7587369, “Antitumor Activity of Ruthenium(II) Terpyridine Complexes towards Colon Cancer Cells In Vitro and In Vivo” (Molecules, 2020).

Columns and labels:
[1] = tested on: HCT116 cells; assay: LDH release assay, HCT116; type: cell-based, human; conditions: HCT116, 300 μM, 24 h
Description: (§1) The cytotoxicity of used complexes was examined by an In Vitro Toxicology Assay Kit, Lactic Dehydrogenase based (Sigma-Aldrich, St. Lous, MO, USA). Cells were prepared and treated with complexes in the same manner as for the MTT assay. Additional wells were prepared as high control cells were treated with 1/10 volume of LDH Assay Lysis Solution for 45 min. Cells exposed to medium were used as low controls. After treatment, supernatant (50 μL) was transferred to new plate and incubated with an equivalent volume of Lactate Dehydrogenase Assay Mixture (which was prepared by mixing equal volumes of LDH Assay Substrate Solution, LDH Assay Dye Solution, and 1’ LDH Assay Cofactor Preparation. After incubating the plates in the dark for 30 min at room temperature, reaction was terminated by the addition of 10 μL of 1 N HCl to each well and data were acquired by spectrophotometry at 490 nm. The percentage of dead cells was calculated using the formula [44]:% of dead cells = (exp. value − low control)/(high control − low control) × 100.

[2] = tested on: SW480 cells; assay: LDH release assay, SW480; type: cell-based, human; conditions: SW480, 300 μM, 24 h
Description: as §1

[3] = tested on: HCT116 (human colon carcinoma cell line); assay: MTT assay cytotoxicity, HCT116; type: cell-based
Description: (§2) Oxaliplatin was included for comparison as a reference substance, and was tested under the same conditions.
(§3) The cells were harvested from the culture flasks during the exponential growth phase, counted and 5 × 10^3 cells/well were seeded into 96-well culture plates. About 24 h later, after the cell adherence, each well was treated with 100 μL of tested complexes, which had been serially diluted two-fold in medium to concentrations ranging from 300 to 2.3 μM. All cells were incubated at 37 °C in an atmosphere containing 5% CO2 and at absolute humidity for 24 and 72 h. After incubation, the culture medium was removed from each well and MTT solution (5 mg/mL in phosphate buffered saline (PBS)) was added to each well and cells were incubated 4 h under culture conditions. The cell-free supernatants were suctioned off, and dimethyl sulfoxide (DMSO) (150 μL) and glycine buffer (20 μL) were added to dissolve the formazan crystals. The plates were shaken for 10 min. The optical density of each well was determined at 595 nm using a multiplate reader (Zenyth 3100, Anthos Labtec Instruments GmbH, Salzburg, Austria). Experiments were performed in triplicates and repeated in three independent series. The percentage of cell viability was determined by comparison with untreated controls according to formula: % of viable cells = (E − B)/(S − B) × 100, where B is for the background of the medium alone, S is for the total viability/spontaneous death of untreated target cells, and E is for the experimental well. The IC50 values were determined by plotting the percentage viability versus concentration on a logarithmic graph and reading off the concentration at which 50% of cells remained viable relative to the control.

[4] = tested on: SW480 (human colon carcinoma cell line); assay: MTT assay cytotoxicity, SW480; type: cell-based
Description: as §2, §3

[5] = tested on: HCT116 cells; assay: Annexin V-FITC/PI double staining, flow cytometry, HCT116; type: cell-based, human; conditions: HCT116, IC50 concentrations, 24 h
Description: (§4) For the detection of apoptosis, the Annexin V binding capacity of treated cells was examined by flow cytometry using an Annexin V-fluorescein isothiocyanate (FITC) Detection Kit (BD Pharmingen, San Jose, CA, USA) according to the manufacturer’s protocol. […] Following the incubation, all cells were trypsinized, washed in PBS, centrifuged, and resuspended in 100 μL of ice-cold binding buffer (10× binding buffer: 0.1 M Hepes/NaOH (pH 7.4), 1.4 M NaCl, 25 mM CaCl2) at a concentration of 1 × 10^6/mL. Annexin V-FITC and propidium iodide (PI) were added to the 100 μL of cell suspension and incubated for 15 min at room temperature (25 °C) in the dark. After incubation, 400 μL of 1× binding buffer was added to each tube and stained cells were analyzed within 1 h using a flow cytometer FACS Calibur (BD Biosciences, San Jose, CA, USA). Data were analyzed using FlowJo Software version VX [45]. Measurements were presented as density plots of Annexin V-FITC and PI stainings.

[6] = Systemic toxicity in CT26 tumor-bearing mice (body and organ weight, serum biochemistry, histopathology); conditions: 2 mg/kg i.p.
Description: Finally, in order to examine the safety of ruthenium(II) terpyridine complexes in vivo, the mice’s body weight was measured before tumor cell inoculation and at the end of experiment. The toxicity associated with ruthenium(II) terpyridine complexes treatment was assessed at biochemical and histopathological levels. The serum concentrations of the biochemical markers ALT, AST, urea, and creatinine were obtained to evaluate the liver and renal functions. In addition, the histopathological changes in the target organs, liver, heart, lungs, and kidneys were evaluated.
BALB/c mice bearing syngeneic CT26 mouse colon carcinoma were selected as the test system, as this experimental model has been extensively used for this kind of research in the literature [47]. For heterotopic colon carcinoma model, 1 × 10^6 CT26 cells suspended in 100 μL of DMEM were injected subcutaneously into the left flank of mice. Tumor-bearing mice were examined every 3 days for tumor development and progression and monitoring body weight. Animals were randomized into 4 groups with 6 tumor-bearing mice that were ear-tagged and followed-up individually throughout the study. The intraperitoneal administration of complexes or saline began on sixth day after post-tumor inoculation. Each drug was administered at doses of 2 mg/kg dissolved in 200 μL saline, twice weekly for four times in total (Scheme 2).
To study the potential side effects of ruthenium(II) terpyridine complexes, treated mice were monitored for weight loss. […] Blood samples were collected from abdominal aorta of each mouse in tubes without anticoagulant, and a separated serum was processed and analyzed by the chemistry analyzer Roche Cobas Mira Plus. The levels of serum urea, creatinine, and liver enzymes—aspartate aminotransferase (AST) and alanine aminotransferase (ALT)—were determined to assess the renal and hepatic function. After sacrificed, organ weights of the heart, liver, lungs, and kidneys, as well as the tumors, were determined for each animal, and the relative organ weight was calculated as % body weight. The tissue sections of various organs (heart, liver, lungs, and kidneys) and tumor were isolated for histopathological analysis. The tissues fixed in 4% paraformaldehyde were embedded in paraffin, cut into thin sections and mounted on glass slides. The tissue sections were stained with hematoxylin and eosin for microscopic examination.

[7] = tested on: CT26 cells; assay: Annexin V-FITC/PI double staining, flow cytometry, CT26; type: cell-based, mouse; conditions: CT26, IC50 concentrations, 24 h
Description: as §4

[8] = tested on: syngeneic CT26 mouse colon carcinoma; assay: Heterotopic CT26 colon carcinoma growth in mice; type: in vivo, BALB/c mice; conditions: 2 mg/kg i.p.; for tumor weights after necropsy versus vehicle-treated mice: four times in total; for tumor growth inhibition (TGI): four times in total from day six, last day of the experiment; for necrosis fields in primary tumor, histology: hematoxylin and eosin
Description: In view of the proven cytotoxic effects of ruthenium(II) terpyridine complexes in vitro, the next goal of the present study was to examine the ability of tested compounds to inhibit murine colon cancer growth and progression in vivo. CT26 cells were heterotopically implanted into the shaved flank of the mice.
Male BALB/c mice of 6–8 weeks of age were used in all experiments. Mice were housed in a temperature-controlled environment (22–24 °C) with a 12 h light–dark cycle and were given standard laboratory food and water ad libitum. […] All experiments were approved (01-8461/2) by, and conducted in accord with, the Guidelines of the Animal Ethics Committee of the Faculty of Medical Sciences of the University of Kragujevac (Kragujevac, Serbia).
The size of primary CT26 colon tumors were assessed morphometrically using electronic calipers in two dimensions. The tumor volume was calculated as follows: tumor volume (mm^3) = (L × W^2)/2, where L is the longest and W the shortest […] of the tumor in millimeters. Results were expressed as means of tumor volumes ± SD. The percent tumor growth inhibition (TGI) was determined according to the formula, TGI(%) = (Vc − Vt)/(Vc − Vo) × 100, where Vc − Vt are the median of control and treated groups at the end of the study and Vo at the start.

[9] = tested on: CT26 (mouse colon carcinoma cell line); assay: MTT assay cytotoxicity, CT26; type: cell-based
Description: as §2, §3

[10] = tested on: CT26 cells; assay: Cell cycle analysis, CT26; type: cell-based, mouse; conditions: CT26, IC50 doses, 24 h
Description: (§5) Both the apoptosis induction and/or cell cycle arrest may reduce the viability of carcinoma cells. Thus, we next investigated the impact of ruthenium(II) terpyridine complexes on possible cell cycle disturbances in colon carcinoma cells.
(§6) Cell cycle analysis was performed with a Vybrant® DyeCycle™ Ruby stain (Thermo Fisher Scientific, Waltham, MA, USA) according to the manufacturer’s instructions. CT26, HCT116, and SW480 cells stained with Vybrant DyeCycle Ruby were analyzed by a Fluorescence-activated cell sorting (FACS) Calibur flow Cytometer (BD Biosciences, San Jose, CA, USA). The cell cycle distribution was analyzed using FlowJo software and the results were presented as histograms.

[11] = Interaction with glutathione by 1H NMR in D2O; conditions: 10 mM in D2O, GSH added to equilibrated solution
Description: (§7) These new resonances, which grew at the expense of those of the parent compound, were attributed to the aqua species [Ru(Cl-tpy)(en)(OH2)]^2+ (1aq) and [Ru(Cl-tpy)(dach)(OH2)]^2+ (2aq), respectively (Scheme 1).
The addition of GSH to an equilibrated solution of Ru-1 (10 mM) in D2O induced very slow changes in the ^1H NMR spectrum (Figure 2). A new set of resonances, attributable to the thiolate adduct [Ru(Cl-tpy)(en)(GS-S)] (3), became apparent in the ^1H NMR spectrum after 6 h. […] (4).
(§8) The compounds [Ru(Cl-tpy)(en)Cl][Cl] […] All other chemicals were used as purchased without further purification. NMR spectra were recorded on a Varian Gemini 200 MHz spectrometer. All chemical shifts were referenced to TSP (trimethylsilylpropionic acid) at d = 0.00. All NMR spectra were run at 295 K.

[12] = tested on: CT26 cells; assay: LDH release assay, CT26; type: cell-based, mouse; conditions: CT26, 300 μM, 24 h
Description: as §1

[13] = tested on: HCT116 cells; assay: Cell cycle analysis, HCT116; type: cell-based, human; conditions: HCT116, IC50 doses, 24 h
Description: as §5, §6

[14] = tested on: HeLa, A549 and MRC-5 cells; set-up: method as in PMID 26855406, PMID 28088012; conditions: previously conducted study; read-out: IC50, range over HeLa, A549 and MRC-5; cited from earlier work
[15] = set-up: method as in PMID 26855406; conditions: cited from earlier work
[16] = Behaviour in aqueous solution by 1H NMR in D2O; type: physicochemical; conditions: ambient temperature, forms aqua species
Description: as §7, §8

Structure (SMILES) | LDH levels (LDH release, % of dead cells) [1] [%] | LDH levels (LDH release, % of dead cells) [2] [%] | IC50 ([3]; 24 h exposure) [µM] | IC50 ([3]; 72 h exposure) [µM] | IC50 ([4]; 24 h exposure) [µM] | IC50 ([4]; 72 h exposure) [µM] | late apoptosis in HCT116 cells, in words [5] | serum concentration of creatinine ([6]; tumor-bearing mice) | serum level of ALT ([6]; tumor-bearing mice) | serum level of AST compared to the control group ([6]; tumor-bearing mice) | tumor weights after necropsy versus vehicle-treated mice [8] | tumor growth inhibition (TGI) [8] [%] | necrosis fields in primary tumor, histology [8] | IC50 ([9]; 24 h exposure) [µM] | IC50 ([9]; 72 h exposure) [µM] | cell cycle disturbance [10] | IC50 [14] [µM] | lability of the chloride ligand in aqueous solution [16] | other results
O=C1[O][Pt]2([NH][C@@H]3CCCC[C@H]3[NH]2)[O]C1=O [Oxaliplatin, oxaliplatin, reference compound] | 0 | 2.20 | 9.7 ± 8 | 0.1 | 100 ± 9 | 1.3 | induced late apoptosis | did not affect | no difference | no difference | markedly lower | 51.39 | no greater than the necrosis field in untreated mice tumors | 54.5 ± 4 | 25.2 ± 2 | G2/M phase arrest | – | – | apoptotic death of CT26 tumor cells, in words [7]: moderately induced apoptotic death
Clc1cc(-c2ccccn2)nc(-c2ccccn2)c1.NCCN.[Cl-].[Cl-].[Ru+2] [Ru-1, [Ru(Cl-tpy)(en)Cl][Cl]] | 8.37 | – | 31.8 ± 2 | 19.1 ± 1 | 50.4 ± 4 | 44.7 ± 4 | induced late apoptosis | did not affect | – | – | markedly lower | 53.41 | The largest part of the primary tumor of Ru-1-treated mice was necrotic | 43.3 ± 3 | 50.9 ± 4 | G2/M phase arrest | 32.8 to 66.3 | very labile | time after which thiolate adduct with GSH became apparent in 1H NMR [11]: 6 h; LDH levels (LDH release, % of dead cells) [12]: 36.43%; cell cycle disturbance [13]: G2/M phase arrest; histological changes in kidney tissue [6]: hyaline cylinders and focal hyaline glomerular change; serum concentration of urea compared to saline-treated mice ([6]; tumor-bearing mice): did not affect; histological changes in heart tissue ([6]; in comparison with oxaliplatin and saline-treated mice): No significant histological changes; log Po/w [15]: −1.33
Clc1cc(-c2ccccn2)nc(-c2ccccn2)c1.NC1CCCCC1N.[Cl-].[Cl-].[Ru+2] [Ru-2, [Ru(Cl-tpy)(dach)Cl][Cl]] | 2.35 | 33.07 | 50.4 ± 5 | 20.4 ± 1 | 156 ± 12 | 86.4 ± 7 | – | – | no difference | no difference | slightly smaller than tumors from the control group, but without statistical significance | 17.56 | larger compared to necrosis fields in the tumors of untreated mice and oxaliplatin-treated mice | 167 ± 12 | 148 ± 11 | – | 72.8 to 111 | very labile | serum urea concentration, excess compared to all other groups ([6]; tumor-bearing mice): ~ 3 units
